According to PMC3623729 (Journal of medicinal chemistry, 2013):
“Also recorded” adds a separate entry of the source. Counter-ions that a name gives are not always drawn.

Biological target: T1, human RXRα (Homo sapiens, UniProt P19793)
T1 sequence (P19793 1-462): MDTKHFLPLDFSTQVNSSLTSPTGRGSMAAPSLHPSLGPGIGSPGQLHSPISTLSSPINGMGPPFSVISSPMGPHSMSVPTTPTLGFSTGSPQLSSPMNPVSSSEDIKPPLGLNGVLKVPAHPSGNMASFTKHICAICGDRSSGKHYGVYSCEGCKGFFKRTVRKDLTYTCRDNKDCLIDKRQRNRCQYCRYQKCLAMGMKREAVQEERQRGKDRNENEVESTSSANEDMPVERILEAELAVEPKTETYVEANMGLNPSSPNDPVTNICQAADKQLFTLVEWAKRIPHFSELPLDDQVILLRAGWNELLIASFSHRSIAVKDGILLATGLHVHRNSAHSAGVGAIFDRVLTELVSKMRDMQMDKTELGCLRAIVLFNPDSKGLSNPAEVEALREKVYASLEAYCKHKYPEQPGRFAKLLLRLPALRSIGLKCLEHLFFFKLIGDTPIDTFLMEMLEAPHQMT
Experiment: RXRE-luciferase reporter gene assay
Format: cell-based
Conditions: for Max IR: maximum induction ratio observed: compounds tested at variable concentrations

| SMILES | RXR activity in words (active / inactive) | Max IR: maximum induction ratio observed |
| --- | --- | --- |
| Cn1c2c(c3ccc(CC(=O)O)cc3c1=O)C(=O)c1ccccc1-2 [Compound 4, 2-(6-Methyl-5,11-dioxo-6,11-dihydro-5H-indeno[1,2-c]isoquinolin-3-yl)acetic Acid] | inactive |  |
| Cn1c2c(c3ccc(/C=C/C#N)cc3c1=O)C(=O)c1ccccc1-2 [Compound 11, (E)-3-(6-Methyl-5,11-dioxo-6,11-dihydro-5H-indeno[1,2-c]isoquinolin-3-yl)acrylonitrile] | inactive |  |
| COC(=O)/C=C/c1ccc2c3c(n(C)c(=O)c2c1)-c1ccccc1C3=O [Compound 12, (E)-Methyl 3-(6-Methyl-5,11-dioxo-6,11-dihydro-5H-indeno[1,2-c]isoquinolin-3-yl)acrylate] | inactive |  |
| Cn1c2c(c3ccc(/C=C/C(=O)O)cc3c1=O)C(=O)c1ccccc1-2 [Compound 13, (E)-3-(6-Methyl-5,11-dioxo-6,11-dihydro-5H-indeno[1,2-c]isoquinolin-3-yl)acrylic Acid] | inactive |  |
| Cn1c2c(c3ccc(CCCC(=O)O)cc3c1=O)C(=O)c1ccccc1-2 [Compound 19, 5-(6-Methyl-5,11-dioxo-6,11-dihydro-5H-indeno[1,2-c]isoquinolin-3-yl)butanoic Acid] | inactive |  |
| Cn1c2c(c3ccc(C(=O)O)cc3c1=O)C(=O)c1ccccc1-2 [Compound 30, 6-Methyl-5,11-dioxo-6,11-dihydro-5H-indeno[1,2-c]isoquinoline-3-carboxylic Acid] | inactive |  |
| Cn1c2c(c3ccc(C(N)=O)cc3c1=O)C(=O)c1ccccc1-2 [Compound 31, 6-Methyl-5,11-dioxo-6,11-dihydro-5H-indeno[1,2-c]isoquinoline-3-carboxamide] | inactive |  |
| Cc1ccc2c3c(n(C)c(=O)c2c1)-c1ccccc1C3=O [Compound 36, 3,6-Dimethyl-5H-indeno[1,2-c]isoquinoline-5,11(6H)-dione] | not active |  |
| Cn1c2c(c3ccc(C=O)cc3c1=O)C(=O)c1ccccc1-2 [Compound 37, 6-Methyl-5,11-dioxo-6,11-dihydro-5H-indeno[1,2-c]isoquinoline-3-carbaldehyde] | inactive |  |
| Cn1c2c(c3ccc(C#N)cc3c1=O)C(=O)c1ccccc1-2 [Compound 39, 3-Cyano-5,11-dihydro-6-methyl-5,11-dioxoindeno[1,2-c]isoquinoline] | inactive |  |
| Cn1c2c(c3ccc(NC(=O)C(=O)O)cc3c1=O)C(=O)c1ccccc1-2 [Compound 45] | inactive |  |
| COC(=O)CC(=O)Nc1ccc2c3c(n(CCCN)c(=O)c2c1)-c1ccccc1C3=O [Compound 52] | active |  |
| NCCCn1c2c(c3ccc(NCC(=O)O)cc3c1=O)C(=O)c1ccccc1-2 [Compound 61] | active |  |
| COC(=O)c1ccc2c3c(n(CCCn4ccnc4)c(=O)c2c1)-c1ccccc1C3=O [Compound 68, Methyl 6-(3-(1H-Imidazol-1-yl)propyl)-5,11-dioxo-6,11-dihydro-5H-indeno[1,2-c]isoquinoline-3-carboxylate Hydrochloride] | inactive; also recorded: lack of activity |  |
| COC(=O)c1ccc2c3c(n(CCCN4CCOCC4)c(=O)c2c1)-c1ccccc1C3=O [Compound 69, Methyl 6-(3-Morpholinopropyl)-5,11-dioxo-6,11-dihydro-5H-indeno[1,2-c]isoquinoline-3-carboxylate] | inactive; also recorded: lack of activity |  |
| COC(=O)c1ccc2c3c(n(CCCN(C)C)c(=O)c2c1)-c1ccccc1C3=O.Cl [Compound 70, Methyl 6-(3-(Dimethylamino)propyl)-5,11-dioxo-6,11-dihydro-5H-indeno[1,2-c]isoquinoline-3-carboxylate Hydrochloride] | active |  |
| Cl.NCCCn1c2c(c3ccc(C(=O)O)cc3c1=O)C(=O)c1ccccc1-2 [Compound 72, 6-(3-Aminopropyl)-5,11-dioxo-6,11-dihydro-5H-indeno[1,2-c]isoquinoline-3-carboxylic Acid Hydrochloride] | lack of activity | NA (NA: Max IR not determined because IR < 2.) |

| SMILES | RXR activity in words (active / inactive) | Max IR: maximum induction ratio observed |
| --- | --- | --- |
| COC(=O)c1ccc2c3c(n(CCCN)c(=O)c2c1)-c1ccccc1C3=O.Cl [Compound 73, Methyl 6-(3-Aminopropyl)-5,11-dioxo-6,11-dihydro-5H-indeno[1,2-c]isoquinoline-3-carboxylate Hydrochloride] |  | NA (NA: Max IR not determined because IR < 2.) |
| COC(=O)/C=C/c1ccc2c3c(n(CCCN)c(=O)c2c1)-c1ccccc1C3=O.Cl [Compound 87, (E)-Methyl 3-(6-(3-Aminopropyl)-5,11-dioxo-6,11-dihydro-5H-indeno[1,2-c]isoquinolin-3-yl)acrylate Hydrochloride] | lack of activity | NA (NA: Max IR not determined because IR < 2.) |
| O=C1c2ccccc2-c2c1c1ccc(Br)cc1c(=O)n2CCCn1ccnc1 [Compound 91, 3-Bromo-6-(3-(1H-imidazol-1-yl)propyl)-5,11-dioxo-6,11-dihydro-5H-indeno[1,2-c]isoquinoline] | inactive |  |
| O=C1c2ccccc2-c2c1c1ccc(Br)cc1c(=O)n2CCCN1CCOCC1 [Compound 92, 3-Bromo-6-(3-morpholinopropyl)-5,11-dioxo-6,11-dihydro-5H-indeno[1,2-c]isoquinoline] | inactive | NA (NA: Max IR not determined because IR < 2.) |
| CN(C)CCCn1c2c(c3ccc(Br)cc3c1=O)C(=O)c1ccccc1-2 [Compound 93, 3-Bromo-6-(3-(dimethylamino)propyl)-5,11-dioxo-6,11-dihydro-5H-indeno[1,2-c]isoquinoline] | active |  |
| O=C1c2ccccc2-c2c1c1ccc(Br)cc1c(=O)n2CCCO [Compound 94, 3-Bromo-5,6-dihydro-6(3-hydroxypropyl)-5,11-dioxo-indeno[1,2-c]isoquinoline] | inactive |  |
| CNCCCn1c2c(c3ccc(Br)cc3c1=O)C(=O)c1ccccc1-2 [Compound 95, 3-Bromo-5,6-dihydro-6-(3-N-methylaminopropyl)-5,11-dioxo-indeno[1,2-c]isoquinoline] | active |  |
| O=C(O)CCn1c2c(c3ccc(Br)cc3c1=O)C(=O)c1ccccc1-2 [Compound 97, Lithium 6(2-Carboxyethyl)-3-bromo-5,6-dihydro-5,11-dioxo-11H-indeno[1,2-c]isoquinoline] | inactive | NA (NA: Max IR not determined because IR < 2.) |
| O=C1c2ccccc2-c2c1c1ccccc1c(=O)n2CCCn1ccnc1 [Compound 102, 5,6-Dihydro-6-(3-imidazolyl-1-propyl)-5,11-dioxo-11H-indeno[1,2-c]isoquinoline] | inactive | NA (NA: Max IR not determined because IR < 2.) |
| CN(C)CCCn1c2c(c3ccccc3c1=O)C(=O)c1ccccc1-2 [Compound 103, 5,6-Dihydro-6-(3-(dimethylamino)-1-propyl)-5,11-dioxo-11Hindeno[1,2-c]isoquinoline] | active; also recorded: high activity |  |
| C[N+](C)(C)CCCn1c2c(c3ccccc3c1=O)C(=O)c1ccccc1-2.[I-] [Compound 104, 6-(3-(Trimethylammonium)propyl)-5H-indeno[1,2-c]isoquinoline-5,11(6H)-dione Iodide] | inactive | NA (NA: Max IR not determined because IR < 2.) |
| CNCCCn1c2c(c3ccccc3c1=O)C(=O)c1ccccc1-2 [Compound 105, 6-(3-(Methylamino)propyl)-5H-indeno[1,2-c]isoquinoline-5,11(6H)-dione] | active; also recorded: high activity |  |
| O=C(O)CCn1c2c(c3ccccc3c1=O)C(=O)c1ccccc1-2 [Compound 106, 3-(5,11-Dioxo-5H-indeno[1,2-c]isoquinolin-6(11H)-yl)propanoic Acid] | inactive | NA (NA: Max IR not determined because IR < 2.) |
| NC(=O)CCn1c2c(c3ccccc3c1=O)C(=O)c1ccccc1-2 [Compound 107, 3-(5,11-Dioxo-5H-indeno[1,2-c]isoquinolin-6(11H)-yl)propanamide] | inactive | NA (NA: Max IR not determined because IR < 2.) |
| COCCCn1c2c(c3ccccc3c1=O)C(=O)c1ccccc1-2 [Compound 108, 6-(3-Methoxypropyl)-5H-indeno[1,2-c]isoquinoline-5,11(6H)-dione] | inactive |  |
| CCCCn1c2c(c3ccccc3c1=O)C(=O)c1ccccc1-2 [Compound 109, 6-Butyl-5H-indeno[1,2-c]isoquinoline-5,11(6H)-dione] | inactive |  |
| CN(C)CCCn1c2c(c3ccc([N+](=O)[O-])cc3c1=O)C(=O)c1ccccc1-2 [Compound 113, 6-(3-(Dimethylamino)propyl)-3-nitro-5H-indeno[1,2-c]isoquinoline-5,11(6H)-dione] | detrimental for activity | NA (NA: Max IR not determined because IR < 2.) |
